The source of these data is article PMC10825183 (Nature Communications, 2024).

Assay [1] has as its target T1, full length mHCN2 (Mus musculus, UniProt O88703).
T1 construct: to full length mHCN2 and ΔDE (mHCN2 1-640) mutant channels, both expressed in Xenopus oocytes; expressed in transfected cells; host or cells: Xenopus laevis oocytes (cRNA injected; pGEMHE vector); excised macropatches
T1 sequence (O88703 1-863): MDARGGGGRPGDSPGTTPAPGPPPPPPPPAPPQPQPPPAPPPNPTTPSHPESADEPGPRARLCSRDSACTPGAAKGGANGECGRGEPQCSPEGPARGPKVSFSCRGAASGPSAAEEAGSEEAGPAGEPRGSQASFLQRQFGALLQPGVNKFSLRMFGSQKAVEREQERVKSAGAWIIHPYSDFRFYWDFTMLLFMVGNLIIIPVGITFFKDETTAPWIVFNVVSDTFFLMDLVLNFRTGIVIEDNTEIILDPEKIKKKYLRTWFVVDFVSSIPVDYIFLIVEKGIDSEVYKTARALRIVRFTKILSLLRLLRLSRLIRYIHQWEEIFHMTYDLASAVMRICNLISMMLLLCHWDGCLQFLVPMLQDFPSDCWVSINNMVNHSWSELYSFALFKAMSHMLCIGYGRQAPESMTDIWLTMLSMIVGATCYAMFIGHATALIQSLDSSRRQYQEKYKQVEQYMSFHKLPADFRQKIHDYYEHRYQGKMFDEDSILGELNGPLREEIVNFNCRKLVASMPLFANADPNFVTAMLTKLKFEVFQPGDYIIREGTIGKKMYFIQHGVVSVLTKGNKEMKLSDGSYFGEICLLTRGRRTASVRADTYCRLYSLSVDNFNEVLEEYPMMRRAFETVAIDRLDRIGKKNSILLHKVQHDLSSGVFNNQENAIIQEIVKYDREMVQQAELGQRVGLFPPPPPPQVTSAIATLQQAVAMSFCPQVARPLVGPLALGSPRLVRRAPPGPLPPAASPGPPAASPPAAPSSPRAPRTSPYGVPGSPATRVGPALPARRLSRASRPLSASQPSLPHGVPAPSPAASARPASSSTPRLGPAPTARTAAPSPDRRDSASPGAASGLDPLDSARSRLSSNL
The conditions noted are these: read-out: binding affinity BC50, cited from earlier work.

The next assay concerns the target T2, ΔDE (mHCN2 1-640) (Mus musculus, UniProt O88703).
T2 construct: full length mHCN2 and ΔDE (mHCN2 1-640) mutant channels, both expressed in Xenopus oocytes; expressed in transfected cells; host or cells: Xenopus laevis oocytes (cRNA injection, pGEMHE)
T2 sequence (O88703 1-640): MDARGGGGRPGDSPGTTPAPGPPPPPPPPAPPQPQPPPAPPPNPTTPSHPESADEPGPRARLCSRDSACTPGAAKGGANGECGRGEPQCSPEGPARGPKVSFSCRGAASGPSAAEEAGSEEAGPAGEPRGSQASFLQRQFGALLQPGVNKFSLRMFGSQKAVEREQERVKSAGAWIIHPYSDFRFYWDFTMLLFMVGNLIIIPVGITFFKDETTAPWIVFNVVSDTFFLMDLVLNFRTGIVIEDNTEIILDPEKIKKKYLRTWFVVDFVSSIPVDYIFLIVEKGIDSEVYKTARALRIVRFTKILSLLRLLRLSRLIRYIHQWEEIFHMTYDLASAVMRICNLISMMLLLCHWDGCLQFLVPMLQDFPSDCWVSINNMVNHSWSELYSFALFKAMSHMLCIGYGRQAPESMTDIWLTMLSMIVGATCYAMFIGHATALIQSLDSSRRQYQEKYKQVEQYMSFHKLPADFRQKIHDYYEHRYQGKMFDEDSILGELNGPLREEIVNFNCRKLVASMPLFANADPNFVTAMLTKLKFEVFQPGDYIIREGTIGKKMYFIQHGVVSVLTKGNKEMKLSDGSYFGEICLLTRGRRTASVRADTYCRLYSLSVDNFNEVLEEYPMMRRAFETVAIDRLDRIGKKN
Briefly: Confocal patch-clamp fluorometry (cPCF), oocyte macropatches. The assay is classed as binding. The note with it: for factor of relative fluorescence increase: individual patches. As for the experimental part:
(§1) We tested this hypothesis using confocal patch-clamp fluorometry (cPCF)[8], measuring current activation and ligand binding in parallel.
(§2) Oocytes were surgically removed from adult females of the South African clawed frog Xenopus laevis under anesthesia (0.3% MS-222 (tricaine methanesulfonate) (Pharmaq, Fordingbridge, UK)). The surgery procedures were carried out in accordance with the German Animal Welfare Act with the approval of the Thuringian State Office for Consumer Protection on 30.08.2013 and 09.05.2018. The oocytes were treated with collagenase A (3 mg/mL; Roche Diagnostics (Grenzach-Wyhlen, Germany)) for 105 min in Ca^2+-free Barth solution containing 82.5 mM NaCl, 2 mM KCl, 1 mM MgCl2, and 5 mM HEPES (pH 7.5). Oocytes of stages IV and V were manually dissected and injected with cRNA-encoding mHCN2 channels of Mus musculus or constructs carrying a point mutation. After injection with cRNA, the oocytes were cultured at 18 °C for 2–10 days in Barth solution containing 84 mM NaCl, 1 mM KCl, 2.4 mM NaHCO3, 0.82 mM MgSO4, 0.41 mM CaCl2, 0.33 mM Ca(NO3)2, 7.5 mM Tris, cefuroxime, and penicillin/streptomycin (pH 7.4). The procedures had approval from the authorized animal ethics committee of the Friedrich Schiller University Jena. The methods were performed according to approved guidelines. Oocytes harvested in our laboratory were complemented with ready-to-use oocytes purchased from EcoCyte Bioscience (Dortmund, Germany).
(§3) The recordings were performed with an LSM 710 confocal microscope (Carl Zeiss, Jena, Germany) and were triggered by the ISO3 software (MFK, Niedernhausen, Germany). To distinguish the fluorescence of the nonbound f1cAMP from that of the bound f1cAMP, a second, chemically related dye, DY647 (Dyomics, Jena, Germany), was also added to the bath solution. The 543- and 633-nm lines of an He-Ne laser were used to excite f1cAMP and DY647, respectively. For quantifying the bound f1cAMP, the fluorescence intensities of the red and the green channels were corrected for small offsets, and the fluorescence in the red channel was scaled to the fluorescence in the green channel in the bath. The difference between the measured green and the scaled red profile for each pixel of the confocal image represents the fraction of the fluorescence signal originating from the bound f1cAMP. The free patch membrane (patch dome) only was used to quantify binding by setting a mask at a region of interest. The fluorescence, F, was averaged over all pixels inside this mask and normalized in each patch concerning the fluorescence at saturating (f1cAMP) and full channel activation (−130 mV), Fmax. The recording rate of the confocal images was 10 Hz.
A general note: In patch-clamp work, channel activity is measured electrically.

Assay [2] concerns the target T1, full length mHCN2. The description is as above. Format: binding. The conditions noted are these: for factor of relative fluorescence increase: individual patches. As for the experimental part:
as §1, §2, §3

Values joined by “and” are separate entries in the source; they are usually repeats but may differ in a detail not shown here. Equal entries are not always repeated. Where two headings read alike, the source gives them in different places.

As to 8-Cy3B-AHT-cAMP [f1cAMP], the Kd is 250 nM on full length mHCN2 [1] (activated mHCN2 channels) and 980 nM on full length mHCN2 [1] (non-activated mHCN2 channels). The “mean increase of fluorescence intensity upon activation, F–130 mV/F−30mV” value at ΔDE (mHCN2 1-640) (0.25 µM f1cAMP, n = 4) turned out to be 2.1 ± 0.3; at full length mHCN2 [2] (0.25 µM f1cAMP, n = 9), 1.6 ± 0.1. For the same substance, the “factor of relative fluorescence increase” value is 1.6 and 2.4 and 1.7 and 2.6 at ΔDE (mHCN2 1-640) (fcAMP 0.25 µM); 1.1 and 1.3 and 1.2 at ΔDE (mHCN2 1-640) (fcAMP 2.5 µM); 1.7 and 1.6 and 1.9 and 2.2 and 1.3 and 1.2 at full length mHCN2 [2] (fcAMP 0.25 µM); 0.9 and 1.1 and 1.3 and 1.0 and 1.2 on full length mHCN2 [2] (fcAMP 2.5 µM). Further, the “F-130 mV/F−30mV” value on full length mHCN2 [2] (2.5 µM f1cAMP, n = 7) is 1.1 ± 0.04.
